Results taken from patent US8241659B2, “Nutrition with lipids and non-digestible saccharides” (N. V. Nutricia, priority 2005, dated 2012).

What was measured:
[1] = tested on: Bifidobacteria; test: Growth in the presence of butyrate (data not shown); assay type: cell-based; conditions: 10 mM butyrate
[2] = tested on: lactic acid bacteria; test: as above; assay type: cell-based; conditions: 10 mM butyrate

For `CCCC(=O)O` [butyrate], the growth inhibition [1] was “not inhibited” and the growth inhibition [2] was “not inhibited”.
